From US7176244B1, “Use of 2-nitropropanol, 2-nitroethane, and 2-nitroethanol for control of microbial pathogens” (The United States of America as represented by the …, priority 2002, dated 2007) come the findings set out here.

Each structure is given as a SMILES string. Values joined by “and” are separate entries in the source; they are usually repeats but may differ in a detail not shown here. Equal values may be shown once. Read-outs that look alike come from different tables or passages of the source.

The test system of test [1] is C. jejuni. Nature of the test: Bactericidal effect in Campylobacter enrichment broth, direct plating and enrichment. It is filed as cell-based, Campylobacter jejuni. The following applies: 48 h, pH 5.6 and 7.0, 42° C. As to the method:
The bactericidal effect against C. jejuni was also determined in vitro. Cultures were inoculated into Campylobacter enrichment broth containing 2-nitropropanol at 0, 5, 10, and 20 mM of final and incubated at 42° C.

Test [2] has as its system E. faecalis. Nature of the test: Specific growth rate in tryptic soy broth (A600). Format: cell-based, Enterococcus faecalis. The following applies: 10 mM in TSB, 37° C. Here is the method:
(§1) The bactericidal effect of 2-nitropropanol and nitroethanol were examined in vitro on several pathogenic bacteria including Salmonella Typhimurium, Escherichia coli O157:H7, Campylobacter jejuni, and Enterococcus faecalis. For an initial in vitro study 2-nitropropanol or nitroethanol were added to tryptic soy broth (TSB) medium in amounts to give 0, 2.5, 5, and 10 mM final concentration. Cultures were inoculated in TSB and incubated at 37° C. Specific growth rates (h^−1) were calculated by measuring optical density (A600) with spectrophotometer.

Test [3] relates to Salmonella Typhimurium. The experiment in a line: Cecal populations in experimentally challenged broiler chicks, experiment 2. Format: in vivo. The following applies: oral gavage. As to the method:
Significant (P<0.05) log reductions occurred in group administered 1×(13 mg/bird) dose for both 24 and 48 h duration compared to untreated control.

Test [4] concerns S. Typhimurium. The experiment in a line: pH effect: populations (CFU/ml) in TSB adjusted to different pH, enumerated on TSA. Format: cell-based, Salmonella Typhimurium. The following applies: 37° C. As to the method: In order to observe the pH effect on this 2-nitropropanol, S. Typhimurium was inoculated into TSB medium adjusted to different pH (5.6, 7.2, and 8.0) with 2-nitropropanol (0, 2.5, and 10 mM final concentration) and incubated at 37° C. Populations of S. Typhimurium were determined (CFU/ml) by enumerating on tryptic soy agar (TSA) at 3, 6, and 24 h. […] However, S. Typhimurium was totally inactivated (more than 5 log reductions) at 10 mM 2-nitropropanol regardless of pH (FIG. 2).

The subject of test [5] is Listeria monocytogenes. The experiment in a line: Bactericidal effect in Tryptic Soy Broth at different pH. Format: cell-based. The following applies: pH 5.6, 7.2, 8.2, 37° C. Here is the method:
The bactericidal effect of 2-nitropropanol against Listeria monocytogenes was examined in vitro following the same assay as described in the first and second experiments of Example 1. Trials were conducted in the media at different pH (5.6, 7.2, and 8.2).

Test [6] concerns Salmonella Typhimurium. It is filed as in vivo, broiler chicks. The following applies: oral gavage, 24 h, Experiment 1. As to the method:
The bactericidal effect of 2-nitropropanol on Salmonella typhimurium was determined in vivo. The in vivo study was conducted using 7-day-old chick experimentally infected with S. Typhimurium. In experiment 1, chicks were orally challenged with 10^6 cfu of NN-resistant strain of S. Typhimurium. Chicks were divided into four groups; control, 1 (13 mg 2-nitropropanol/bird), 5 (65 mg 2-nitropropanol/bird) and 10×(130 mg 2-nitropropanol/bird). Treatments were administered via oral gavage. After 24 h, cecal contents were aseptically removed and subjected to bacterial analysis.

In test [7] the test system is E. coli O157:H7. Nature of the test: Specific growth rate in tryptic soy broth (A600). Format: cell-based, Escherichia coli O157:H7. The following applies: 2.5 mM and higher concentrations in TSB, 37° C. Here is the method:
as §1

Test [8] relates to S. Typhimurium. Format: cell-based, Salmonella Typhimurium. The following applies: 10 mM. Here is the method: Another experiment was conducted to evaluate the bactericidal effect of 2-nitropropanol against S. Typhimurium in buffered rumen and fecal fluid containing viable populations of endogenous anaerobes. Briefly, ruminal contents and feces were retrieved and strained. Both collected fluids were transferred to laboratory and mixed with anoxic phosphate buffer (pH 6.8). Antibiotic-marked (25 μg novobiocin/ml and 20 μg/ml of nalidixic acid resistant) (NN)S. Typhimurium cultures were inoculated into these mixtures supplemented with 2-nitropropanol at various concentrations (0, 2.5, and 10 mM of final). Those inoculated tubes were incubated at 37° C. and populations were monitored at different sampling time (0, 3, 6, and 24 h) by direct plating onto brilliant green agar (BGA) containing NN.

Test [9] concerns S. Typhimurium. Nature of the test: Specific growth rate in tryptic soy broth (A600). Format: cell-based, Salmonella Typhimurium. As to the method: as §1
Test [10] concerns Campylobacter jejuni. The experiment in a line: Bactericidal effect in Bolton Broth at different pH. It is filed as cell-based. The following applies: sodium salt used; 0, 10, 20 mM in Bolton Broth; pH 5.6, 7.2, 8.2. Here is the method: The bactericidal effect of 2-nitroethane against Campylobacter jejuni was examined in vitro following substantially the same assay as described in the first experiment of Example 1 except Bolton Broth was utilized rather than TSB. In this experiment nitroethane was added to the Bolton Broth medium in amounts to give 0, 10, and 20 mM final concentrations, and trials were conducted in the media at different pH (5.6, 7.2, and 8.2).
Because 2-nitroethane is somewhat volatile, the sodium salt of the compound was prepared and used in this experiment. The salt was prepared using the process described by Majak et al. (1986, J. Anim. Sci., 62:1072–1080, the contents of which are incorporated by reference herein).

With `CC(CO)[N+](=O)[O-]` (stereo not shown) [2-nitropropanol], the “inactivation of C. jejuni cultures” value in [1] (10 mM) and in test [1] (20 mM) was “completely inactivated” in each case. Also, the “growth of E. faecalis (specific growth rate)” value in test [2] is listed as “markedly inhibited”. In addition, the “Salmonella Typhimurium, Mean log CFU/g of cecal content (standard deviation)” value in test [3] (0.5× = 6.5 mg per bird, 24 h) was 4.19 (2.53) A log CFU/g; in test [3] (0.5× = 6.5 mg per bird, 48 h) it was 3.84 (2.69) AB log CFU/g; in [3] (0.5× = 6.5 mg per bird, Combined 24 and 48 h), 4.01 (2.59) A log CFU/g; in test [3] (1× = 13 mg per bird, 24 h), 2.58 (2.10) B log CFU/g; in [3] (1× = 13 mg per bird, 48 h) it was 2.88 (2.78) B log CFU/g; in [3] (1× = 13 mg per bird, Combined 24 and 48 h), 2.73±2.45 log CFU/g and 2.73 (2.45) B log CFU/g. In [4] (2.5 mM, pH 5.6, after 24 h), the “reduction of S. Typhimurium cells” value is recorded as “approximately 3 log”. For the same compound, the “reduction of S. Typhimurium cells (totally inactivated)” value in test [4] (10 mM, regardless of pH (5.6, 7.2, 8.0)) was “more than 5 log”. Further, in test [5], the “pH dependence of bactericidal effect against Listeria monocytogenes” value was “enhanced in an acidic or alkaline environment, but is somewhat reduced at neutral pH”. In addition, the “Mean log CFU/g of cecal content (standard deviation)” value was 3.65±2.01 log CFU/g and 3.65 (2.01) B log CFU/g in [6] (1× = 13 mg per bird); 3.39±2.42 log CFU/g and 3.39 (2.42) B log CFU/g in [6] (5× = 65 mg per bird); 3.47 ± 1.55 log CFU/g and 3.46 (1.55) B log CFU/g in test [6] (10× = 130 mg per bird). Moreover, the “growth of E. coli O157:H7 (specific growth rate)” value in test [7] is recorded as “largely prohibited”. In addition, the “reductions of Salmonella populations compared to controls” value is recorded as 2–3 log in test [8] (fecal fluid in anoxic phosphate buffer pH 6.8, 37° C.) and 2–3 log in test [8] (ruminal fluid in anoxic phosphate buffer pH 6.8, 37° C.). For the same compound, the “growth of S. Typhimurium (specific growth rate)” value in [9] (2.5 mM and higher concentrations in TSB, 37° C.) is reported as “largely prohibited”.
On to `O=[N+]([O-])CCO` [2-nitroethanol], for which the “growth of E. coli O157:H7 (specific growth rate)” value in test [7] is given as “largely prohibited”. Also, the “growth of S. Typhimurium (specific growth rate)” value in test [9] is listed as “largely prohibited”.
Consider `CC[N+](=O)[O-]` [2-nitroethane], for which, in test [10], the “pH dependence of bactericidal effect against Campylobacter jejuni” value was “increased at alkaline pH”.
